Reference: patent US9598384B2, “3-(2-amino-ethyl)-alkylidene)-thiazolidine-2,4-dione and 1-(2-amino-ethyl)-alkylidene-1,3-dihydro-indol-2-one derivatives as selective sphingosine kinase 2 inhibitors” (VIRGINIA COMMONWEALTH UNIVERSITY, priority 2012, dated 2017)
Values joined by “and” are separate entries in the source; they are usually repeats but may differ in a detail not shown here. Equal values may be shown once. “Also recorded” adds a separate entry of the source.

Legend:
[1] = test system: human leukemia U937 cells; test: Cell viability assay in human leukemia U937 cells; format: cell-based
Description: Cells were cultured at a density of 5×10^4 (U937) or 1×10^4 (PC-3, DU145, M12, HT29) cells per well in flat bottomed 96-well plates and treated with various concentrations of test compound at 37° C. (5% CO2). After 24 h, 20 μL of CellTiter 96® Aqueous One Solution Reagent (Promega, Madison, Wis.) was added to each well according to the manufacturer's instructions. After 1 hour, the cell viability was determined by measuring the absorbance at 490 nm using a micro-plate reader.

JC xenograft = test: JC xenografts in syngenic BALB/c mice, i.p.; format: in vivo
Description: FIG. 14A-E. K145 suppresses the growth of JC xenograft in BALB/c mice. BALB/c mice (n=8) with palpable JC xenograft were treated daily with vehicle or K145 (20 mg/kg and 35 mg/kg) for 15 days by i.p. injection.
Female BALB/c mice (n=12) were injected with 1×10^6 JC cells subcutaneously in the flank, and treatment with the compound produced as described in Example 15 i.e. 3-(2-aminoethyl)-5-[3-(4-butoxyphenyl)-propylidene]-thiazolidine-2,4-dione (Formula III-K145, 20 mg/kg and 35 mg/Kg dosage daily (i.p.) was started seven days after the tumor cell injection and stopped at day […]. Mice were sacrificed at 15 days treatment.

SphK2 = target: T1, SphK2 (Homo sapiens, UniProt Q9NRA0); test: SphK2 activity assay (sphingosine substrate, with kinetic study); format: biochemical
T1 sequence (Q9NRA0 1-654): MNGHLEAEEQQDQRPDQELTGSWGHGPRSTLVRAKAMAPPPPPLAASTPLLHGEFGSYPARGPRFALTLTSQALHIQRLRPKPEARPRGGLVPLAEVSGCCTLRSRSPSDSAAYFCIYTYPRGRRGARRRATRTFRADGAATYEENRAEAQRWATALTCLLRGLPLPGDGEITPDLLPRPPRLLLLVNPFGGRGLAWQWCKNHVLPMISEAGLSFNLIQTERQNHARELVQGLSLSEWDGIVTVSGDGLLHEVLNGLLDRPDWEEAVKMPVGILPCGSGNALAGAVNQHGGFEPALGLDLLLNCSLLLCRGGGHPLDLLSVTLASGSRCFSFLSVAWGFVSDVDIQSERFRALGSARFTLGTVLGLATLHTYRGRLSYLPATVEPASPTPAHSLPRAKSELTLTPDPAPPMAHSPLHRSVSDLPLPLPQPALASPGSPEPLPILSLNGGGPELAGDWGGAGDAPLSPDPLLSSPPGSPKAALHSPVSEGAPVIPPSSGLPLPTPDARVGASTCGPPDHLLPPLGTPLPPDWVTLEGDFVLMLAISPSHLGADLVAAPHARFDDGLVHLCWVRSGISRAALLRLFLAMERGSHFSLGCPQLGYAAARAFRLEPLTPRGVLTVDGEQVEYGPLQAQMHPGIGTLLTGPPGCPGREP
Description: A) SphK1 and SphK2 activities were measured with 5 μM sphingosine in the absence or presence of the indicated concentrations of K145 or 10 μM DMS. […] Data are expressed as percentage of control activity averaged from 2 independent experiments. Data are expressed as mean value±SEM.
SphK2 was incubated with indicated compounds at 10 μM, then the activity of SphK2 was determined. The data shown here is a relative activity of SphK2 compared to control (no inhibitor, column labeled Sph in the Figure). […] “A” and “B” refer to different batches of a compound.
SphK2 was incubated with indicated compounds at 10 μM, then the activity of SphK2 was determined. The data shown here is a relative activity of SphK2 compared to control (no inhibitor).

[2] = test system: Raf/MEK/ERK and PI3K/Akt signaling pathways; test: Western blot analysis of ERK and Akt phosphorylation; format: cell-based
Description: Cells (5×10^5 per ml) were treated with various concentrations of test compound at 37° C. (5% CO2) for 3 hrs, then stimulated with TPA at a final concentration of 200 nM for 20 min. Samples from whole-cell pellets were prepared and 30 μg protein for each condition was subjected to SDS-PAGE, transferred onto a PVDF membrane, and blocked with 5% fat-free milk for 30 min. The membrane is probed with primary antibodies overnight at 4° C. followed by incubation with horseradish peroxidase-labeled anti-mouse IgG (1:5000, BD Bioscience). The immunoreactive bands are detected by chemilluminescence methods (Pierce) and visualized on Kodak Omat film. The following primary antibodies were used: phospho-p44/42 MAPK (ERK1/2, Thr202/Tyr204), p44/42 MAPK, phospho-p90RSK (Thr359/Ser363), RSK1/RSK2/RSK3 (Cell Signaling). Blots were reprobed with antibodies against α-tubulin to ensure equal loading and transfer of proteins.

U937 xenograft [3] = test: U937 xenografts in nude mice, i.p. administration; format: in vivo, BALB/c-nu mice; details: 15 mg/kg daily i.p.
Description: D) Body weights of mice throughout treatment. Data are expressed as mean value±SD. *P<0.05 compared to control group.
Female nude mice (BALB/c-nu, n=7) were inoculated with 3×10^7 U937 cells subcutaneously in the right flank. After 7 days of implant of U937 cells, mice were treated daily with Vehicle (control), or Tamibarotene (15 mg/Kg, positive control), or Formula III (K145) (15 mg/Kg) by i.p. administration. Tumor size was measured every other day.

U937 xenograft [4] = test: U937 xenografts in nude mice, oral administration
Description: BALB/c-nu mice (n=7) with palpable U937 xenograft were treated daily with vehicle, tamibarotene (20 mg/kg), or K145 (50 mg/kg) for 15 days by oral gavage. After treatment, animals were sacrificed and tumors were removed, weighed and images were taken. […] Data are expressed as mean value±SEM. *P<0.05 compared to control group.
In this experiment, K145 was given at 50 mg/kg by oral gavage daily for 15 days and tumor volume and animal weights were measured every other day. Again, tamibarotene (20 mg/kg) was used as positive control.

S1P = test: Cellular S1P level in U937 cells by ESI-MS/MS; format: cell-based, human; details: 10 μM, 3 h
Description: FIG. 16A-E. K145 accumulates and suppresses the S1P level. A and B) U937 cells were treated with K145 at the indicated concentrations for 3 h and the levels of K145 and S1P were measured by ESI-MS/MS. C) HEK293 cells were treated with K145 (10 μM) for 2 h. Lipids were extracted and different chain length species of ceramide were determined by LC-ESI-MS/MS. Numbers indicate chain length followed by the number of double bonds in the fatty acid. Data are averages of triplicate determinations and are expressed as pmol lipid/10^6 cells. D) U937 cells were treated with or without K145 (10 μM) for 3 h and levels of C1P species were determined by ESI-MS/MS. E) U937 cells were treated with FTY720 (1 μM) in the absence or presence of indicated K145 for 3 h, then FTY720-P was measured by ESI-MS/MS. *P<0.05 compared to control.
Next we examined whether K145 affects cellular levels of S1P. […] Therefore, we further characterized K145 in U937 cells. […] This might be due to the fact that many enzymes such as SphK1, SphK2, S1P lyase, and S1P phosphatise, not just SphK2, are involved in the regulation of cellular S1P. […] To further confirm its SphK2 selectivity, we then tested the effects of K145 on the phosphorylation of FTY720, a SphK2 specific substrate.

**Q.** Which “IC50 for proliferation of tested cancer cells (in words)” value ([1]; FIG. 8, U937 cells, 24 h) does the source give for `CCCCOc1ccc(CC/C=C2\SC(=O)N(CCN)C2=O)cc1` [K145, 3-(2-aminoethyl)-5-[3-(4-butoxyl-phenyl)-propylidene]-thiazolidine-2,4-dione] here?
**A.** single digit micromolar

**Q.** And the “inhibition of growth/proliferation of U937 cells (in words)” value ([1]; human leukemia U937 cells)?
**A.** dose-dependently inhibits the growth

**Q.** And the “S1P level in JC tumor samples” value (JC xenograft; 20 mg/kg group vs vehicle, ESI-MS/MS)?
**A.** suppressed

**Q.** And the “K145 level in JC tumor samples” value (JC xenograft; 20 mg/kg group, ESI-MS/MS)?
**A.** detected

**Q.** What about the “p-ERK and p-Akt levels in tumor samples” value (JC xenograft; 20 mg/kg vs vehicle, Western blot) of the same molecule?
**A.** decreased

**Q.** And the “changes in body weights and major organs (heart, lung, liver, kidney)” value (JC xenograft; 20 and 35 mg/kg i.p., 15 days)?
**A.** did not observe significant changes

**Q.** What about the “tumor weights vs vehicle-treated mice” value (JC xenograft; 20 and 35 mg/kg i.p., 15 days) of the same molecule?
**A.** significantly less

**Q.** And the “mean volume of JC tumors smaller than in vehicle-treated mice” value (JC xenograft; both doses (20 and 35 mg/kg daily i.p.), after 15 days)?
**A.** > 50%

**Q.** What about the Ki (SphK2; Lineweaver-Burk analysis, increasing concentrations of sphingosine) of the same molecule?
**A.** 6.4 ± 0.7 µM

**Q.** And the IC50 (SphK2; recombinant SphK2, 5 μM sphingosine)?
**A.** 5 µM and 4.3 µM

**Q.** What about the “inhibition of SphK2 activity (in words)” value (SphK2; relative activity vs no inhibitor, compounds at 10 μM (FIGS. 1, 3, 5)) of the same molecule?
**A.** significantly inhibit SphK2; also recorded: inhibits SphK2

**Q.** And the “type of SphK2 inhibition” value (SphK2; with the substrate sphingosine)?
**A.** competitive inhibitor

**Q.** And the “phosphorylation of both ERK and Akt” value ([2]; 3 μM, 3 hrs treatment, then TPA stimulation)?
**A.** significantly inhibited

**Q.** And the “inhibition of Raf/MEK/ERK and PI3K/Akt signaling pathways” value ([2]; Western blot, FIGS. 9 and 10)?
**A.** inhibits

**Q.** What about the “TGI (tumor growth inhibition)” value (U937 xenograft [3]; 17 days) of the same molecule?
**A.** 44.2%

**Q.** What about the “body weights of mice” value (U937 xenograft [3]; compared with vehicle) of the same molecule?
**A.** remained the same

**Q.** What about the oral availability (U937 xenograft [4]; 50 mg/kg oral gavage) of the same molecule?
**A.** orally available

**Q.** And the toxicity (U937 xenograft [4]; 50 mg/kg oral, 15 days)?
**A.** no apparent toxicity was observed

**Q.** And the body weights (U937 xenograft [4]; 50 mg/kg oral, beginning of the treatment, recovered later)?
**A.** slight decrease of body weights

**Q.** What about the “TGI (tumor growth inhibition)” value (U937 xenograft [4]; oral gavage daily 15 days, K145 50 mg/kg, tamibarotene 20 mg/kg) of the same molecule?
**A.** 51.25%

**Q.** What about the “total cellular S1P” value (S1P) of the same molecule?
**A.** caused a decrease
